Test results: patent US8538706B2, “Method for affinity scoring of peptide/protein complexes” (Lonza Biologics PLC, priority 2004, dated 2013)

Tests used:
HLA-A*0101 (A1) = HLA-A*0101 (A1) (Homo sapiens, UniProt P04439, A114D/A174V/A182V/D101N/D185E/E176A/E190D/L180R/Q94H/R68K/S129P/T187R/V100A/V91M/W191G); conditions: cited from earlier work
HLA-A*2402 = HLA-A*2402 (Homo sapiens, UniProt P04439, D101N/D140Y/D185E/E176V/E190D/F33S/G103R/G107R/I119L/I121M/I306V/K335N/L105A/L180Q/L300P/N151K/N90K/Q86E/Q94H/R106L/R138H/R89G/T104I/T345S/V100E/W191G/Y123F); assay: independent binding assay of fluorescent reference peptide (Kdref), A24; conditions: single-site curve fitting, approximate
Protocol: 50% inhibitory concentrations (IC50-values) were calculated as averages obtained from at least 3 independent measurements, i.e. from different cell preparations and peptide dilutions. Test peptides >95% pure (Thermo Electron GmbH) were stored at 10 mM in DMSO at −20° C. Cysteine-containing peptides were stored at 10 mM in 1 mM DTT DMSO. […] IC50-values were converted to binding free energies (AG) using the relationships Kd=IC50Kdref/cref (7) and AG=RT ln(Kd) (8) where Kdref and cref are the dissociation constant and formal concentration of the reference peptide, respectively. The Kdref values were derived from an independent binding assay in which the fluorescence intensity was measured as a function of increasing concentrations of reference peptide.

Q: With IYQYMDDLY as the substance, how does the “binding to A1 in words” value (HLA-A*0101 (A1); Tyr at P2) read?
A: The value was “medium-affinity binder”.

Q: For RYLKC(5Fluorescein)QQLL, which Kd (HLA-A*2402) is on record?
A: The Kd was roughly 30 nM.

Q: With YSDSVYGDT as the substance, how does the Kd (HLA-A*0101 (A1); strongest A1-binding peptide from HPV-18) read?
A: The Kd was 188 nM.
